Reference: patent US20230382920A1, “SHMT Inhibitors” (The Trustees of Princeton University, priority 2020, published 2023)
Where two headings read alike, the source gives them in different places.

Assay: Pharmacokinetics study of KDG-0388 in male CD1 mice (Example 2)
Format: in vivo
Conditions: for F: bioavailability vs 1 mg/kg IV; for MRT inf: read-out: MRTInf_obs
Protocol: A standard PK study of KDG-0388 was performed in male CD1 mice dosed with a single oral or intraperitoneal dose of KDG-0388. The parameters of the PK study are described in Table 10. Dosing solutions were freshly made prior to use, and were in the form of a suspension. […] For IV and IP, after collection, plasma samples from the same time point were pooled, and the pooled samples were analyzed by LC/MS/MS.
The desired serial concentrations of working solutions were achieved by diluting stock solution of analyte with 50% acetonitrile in water solution. 5 μL of working solutions (2, 4, 10, 20, 100, 400, 2000, 4000 ng/mL) were added to 10 μL of blank CD1 mouse plasma to achieve calibration standards of 1-2000 ng/mL (1, 2, 5, 10, 50, 200, 1000, 2000 ng/mL) in a total volume of 15 μL. Five quality control (QC) samples at 2 ng/mL, 5 ng/mL, 50 ng/mL, 800 ng/mL and 1600 ng/mL for plasma were prepared independently of those used for the calibration curves. These QC samples were prepared on the day of analysis in the same way as calibration standards.
15 μL standards, 15 μL QC samples and 15 μL unknown samples (10 μL plasma with 5 μL blank solution) were added to 200 μL of acetonitrile containing IS mixture for precipitating protein. Then, the samples were vortexed for 30 seconds. After centrifugation at 4 degrees Celsius, 4000 rpm for 15 minutes, the supernatant was diluted three times with water. 25 μL of diluted supernatant was injected into the LC/MS/MS system for quantitative analysis.
BLOQ=Below quantifiable limit of 1 ng/mL. PK parameters were estimated by non-compartmental model using WinNonlin 6.1. The PO bioavailability (F %) was calculated as following:
AUClast-PO/AUCINF-PO>80%: F=(AUCINF-PO*DoseIV)/(mean AUCINF-IV*DosePO) AUClast-PO/AUCINF-PO≤80% or AUCINF was not available: F=(AUClast-PO*DoseIV)/(mean AUClast-IV*DosePO).
The IP bioavailability (F %) was calculated as following:
AUClast-IP/AUCINF-IP>80%: F=(AUCINF-IP*DoseIV)/(mean AUCINF-IV*DoseIP) AUClast-IP/AUCINF-IP≤80% or AUCINF was not available: F=(AUClast-IP*DoseIV)/(mean AUClast-IV*DoseIP).

[1] = male, mouse, plasma, CD1 mice, 1 mg/kg IV
[2] = male, mouse, CD1 mice, plasma, 1 mg/kg IV, read-out: Concentration IV_Mean
[3] = mouse, plasma, male CD1 mice, 200 mg/kg IP
[4] = mouse, plasma, male CD1 mice, 200 mg/kg PO
[5] = mouse, male CD1 mice, plasma, 200 mg/kg IP, read-out: Concentration IP_Mean
[6] = mouse, male CD1 mice, plasma, 200 mg/kg PO, read-out: Concentration PO_Mean

`Cc1n[nH]c2c1C(c1cc(C#C[C@H]3C[C@@H](NC(=O)OC(C)(C)C)C3)cc(CO)c1)(C(C)C)C(C#N)=C(N)O2` (stereo partly drawn) [KDG-0388, tert-butyl N-[(1s,3s)-3-[2-(3-[6-amino-5-cyano-4-isopropyl-3-methyl-1H-pyrano[2,3-c]pyrazol-4-yl]-5-(hydroxymethyl)phenyl)ethynyl]cyclobutyl]carbamate] showed an AUC_%Extrap_obs (CD1 mice, 1 mg/kg IV) of 3.44%, an AUClast/D (CD1 mice, 1 mg/kg IV) of 76.6 kg·ng·h/mL/mg and a Cl_obs (CD1 mice, 1 mg/kg IV) of 210 mL/min/kg. The Vss_obs (CD1 mice, 1 mg/kg IV) was 8.80 L/kg, the “Concentration IV_Mean” value (CD1 mice, plasma, 1 mg/kg IV, 8 h) was “BLOQ” and the AUC_%Extrap_obs (male CD1 mice, 200 mg/kg IP) was 6.08%. For the same compound, the AUClast/D (male CD1 mice, 200 mg/kg IP) was 136 kg·ng·h/mL/mg, the F (male CD1 mice, 200 mg/kg IP) was 183% and the AUC_%Extrap_obs (male CD1 mice, 200 mg/kg PO) was 0.218%. For the same compound, the AUClast/D (male CD1 mice, 200 mg/kg PO) was 16.9 kg·ng·h/mL/mg, the F (male CD1 mice, 200 mg/kg PO) was 21.4% and the “Concentration PO_Mean” value (male CD1 mice, plasma, 200 mg/kg PO, 24 h) was “BLOQ”. For the same compound, the clinical symptoms (male CD1 mice, single dose 200 mg/kg PO or 200 mg/kg IP, entire experiment) was “No abnormal clinical symptoms were observed”, the AUC(0-inf) [1] was 79.3 ng·h/mL and the AUC(0-t) [1] was 76.6 ng·h/mL. It also gave a C0 [1] of 325 ng/mL, a half-life [1] of 1.11 h and an MRT inf [1] of 0.698 h. It also gave a concentration at 0.083 h (male, mouse, CD1 mice, plasma, 1 mg/kg IV, 0.083 h, read-out: Concentration IV_Mean) of 186 ng/mL, a concentration at 0.25 h [2] of 60.6 ng/mL and a concentration at 0.5 h [2] of 24.9 ng/mL. The concentration at 1 h [2] was 11.8 ng/mL, the concentration at 2 h [2] was 4.86 ng/mL and the concentration at 4 h [2] was 1.71 ng/mL. It also gave an AUC(0-inf) [3] of 29000 ng·h/mL, an AUC(0-t) [3] of 27200 ng·h/mL and a Cmax [3] of 7520 ng/mL. It also gave a Tmax [3] of 0.25 h, a half-life [3] of 7.88 h and an MRT inf [3] of 6.33 h. For the same compound, the AUC(0-inf) [4] was 3400 ng·h/mL, the AUC(0-t) [4] was 3390 ng·h/mL and the Cmax [4] was 719 ng/mL. For the same compound, the Tmax [4] was 2 h, the half-life [4] was 1.69 h and the MRT inf [4] was 3.53 h. The concentration at 0.25 h [5] was 7520 ng/mL, the concentration at 0.5 h [5] was 6170 ng/mL and the concentration at 1 h [5] was 5460 ng/mL. For the same compound, the concentration at 2 h [5] was 3910 ng/mL, the concentration at 4 h [5] was 2230 ng/mL and the concentration at 8 h (mouse, male CD1 mice, plasma, 200 mg/kg IP, 8 h, read-out: Concentration IP_Mean) was 633 ng/mL. It also gave a concentration at 16 h [5] of 247 ng/mL, a concentration at 24 h (mouse, male CD1 mice, plasma, 200 mg/kg IP, 24 h, read-out: Concentration IP_Mean) of 155 ng/mL and a concentration at 0.25 h [6] of 215 ng/mL. For the same compound, the concentration at 0.5 h [6] was 347 ng/mL, the concentration at 1 h [6] was 475 ng/mL and the concentration at 2 h [6] was 719 ng/mL. For the same compound, the concentration at 4 h [6] was 417 ng/mL, the concentration at 8 h (mouse, male CD1 mice, plasma, 200 mg/kg PO, 8 h, read-out: Concentration PO_Mean) was 84.3 ng/mL and the concentration at 16 h [6] was 3.04 ng/mL.
